Test results reported in patent publication US5817840A, “Water soluble taxol derivatives” (The Scripps Research Institute, priority 1997, dated 1998).
“Also recorded” adds a separate entry of the source.

Key:
[1] = test system: Capan-1 (pancreatic); assay: Cytotoxicity (sulphorhodamine B), cancer cell line, Table 1B; type: cell-based; details: Homo sapiens, CAPAN-1, 72 h
[2] = test system: OVCAR-3 (ovarian carcinoma); assay: as above; type: cell-based; details: Homo sapiens, OVCAR-3, 72 h
[3] = test system: PC-3 (prostate carcinoma); assay: as above; type: cell-based; details: Homo sapiens, 72 h
[4] = test system: SK (melanoma); assay: as above; type: cell-based; details: 72 h
[5] = test system: SIHA (cervix carcinoma); assay: as above; type: cell-based; details: Homo sapiens, SiHa, 72 h
[6] = test system: CHO (normal human mammary); assay: Cytotoxicity (sulphorhodamine B), normal cell line, Table 1B; type: cell-based; details: Homo sapiens, 72 h
[7] = physchem
Method: The solubilities of the synthesized protaxols in D2 O were determined by 1H NMR spectroscopy.
The resulting mixture was centrifuged for 20 minutes and the supernatant saturated solution was analysed by ^1 H NMR spectroscopy using a Bruker AMX-400 instrument and methanol or pyridine as internal standard. The concentration of the compound was determined by comparing several signals with the CH3 signal of methanol or the NCH signal of pyridine.

[8] = test system: 786-0 (renal cell carcinoma); assay: Cytotoxicity (sulphorhodamine B), cancer cell line, Table 1B; type: cell-based; details: Homo sapiens, 786-0, 72 h
[9] = test system: UCLA-P-3 (lung carcinoma); assay: as above; type: cell-based; details: Homo sapiens, UCLA P-3, 72 h
[10] = test system: HL-60 (promyel carcinoma); assay: as above; type: cell-based; details: Homo sapiens, HL-60, 72 h
[11] = test system: HT-29 (colon carcinoma); assay: as above; type: cell-based; details: Homo sapiens, HT-29, 72 h
[12] = cited from earlier work
[13] = test system: BT-549 (breast carcinoma); assay: Cytotoxicity (sulphorhodamine B), cancer cell line, Table 1B; type: cell-based; details: Homo sapiens, BT-549, 72 h
[14] = test system: MOLT-4 (T-cell leukaemia); assay: as above; type: cell-based; details: Homo sapiens, MOLT-4, 72 h
[15] = test system: H322 (lung carcinoma); assay: as above; type: cell-based; details: NCI-H322, 72 h
[16] = test system: broad spectrum of cell lines; assay: Cytotoxicity against a broad spectrum of cell lines (overall); details: Table 1B
Method: The protaxols synthesized in this study were tested against a broad spectrum of cell lines ranging from the multiple-drug resistant ovarian (OVCAR-3) to lung (H-322) and leukemia (MOLT-4) cells in order to assess cytotoxicity, cell-type selectivity, and duration of action.
The cytotoxicities were determined using the sulphorhodamine B assay method (Skehan, P. et al. J. Nat. Canc. Inst. 82, 1107 (1990)).

[17] = test system: HT-29 (human adenocarcinoma, colon); assay: Cytotoxicity, Example 8; type: cell-based; details: HT-29, 72 h
Method: (§1) Tumor or normal cells were cultured in 96-well plates with the test compound in 200 μl of RPMI supplemented with 10% fetal bovine serum (Hyclone, Salt Lake City, Utah) at 37° C. in a humidified atmosphere containing 5% CO2 in air for 72 hours. Sulforhodamine B dissolved in 1% acetic acid was added, and the plates were incubated for 30 minutes at ambient temperature, washed with 1% acetic acid, and blotted. To the air-dried plates were added 100 μl of […] unbuffered TRIS base (pH 10.5) with shaking. The optical densities of the plates were measured with a microplate reader (Molecular Devices Thermomax) at 540 nm. The concentration of compound required to reduce the absorbance to 50% of control samples was recorded as IC50.
(§2) NHDF: Normal human dermal fibroblast (available from Clouelics Corp., San Diego, Calif.); HLF-1: Normal human diploid lung; W1-38; Normal human diploid lung; CHO; Chinese hamster ovary; SK-MEL-28: Melanoma; CAPAN-1: Pancreatic carcinoma; H322: lung carcinoma; MCF-7; Breast carcinoma; BT-549; Human breast ductal carcinoma; OVCAR-3: Human ovarian carcinoma; HT-29: Human adenocarcinoma, colon; SIHA: Human squamous carcinoma crvx; 786-0: Human perirenal cell adenocarci; PC-3: Human prostate adenocarcinoma; HL-60: Human promyelomic leukemia; MOLT-4: Human T-cell leukemia. All cell lines except NHDF are available from the American Tissue Culture Collection, Rockville, Md.

[18] = test system: PC-3 (human prostate adenocarcinoma); assay: Cytotoxicity, Example 8; type: cell-based; details: 72 h
Method: as §1, §2

[19] = test system: NHDF (normal human dermal fibroblast); assay: Cytotoxicity, Example 8; type: cell-based; details: 72 h
Method: as §1, §2

[20] = test system: W1-38 (normal human diploid lung); assay: Cytotoxicity, Example 8; type: cell-based; details: W138, 72 h
Method: as §1, §2

[21] = test system: S1HA (human squamous carcinoma crvx); assay: Cytotoxicity, Example 8; type: cell-based; details: 72 h
Method: as §1, §2

[22] = test system: SK-MEL-28 (melanoma); assay: Cytotoxicity, Example 8; type: cell-based; details: Homo sapiens, SK-MEL-28, 72 h
Method: as §1, §2

[23] = test system: CAPAN-1 (pancreatic carcinoma); assay: Cytotoxicity, Example 8; type: cell-based; details: Homo sapiens, CAPAN-1, 72 h
Method: as §1, §2

[24] = test system: OVCAR-3 (human ovarian carcinoma); assay: Cytotoxicity, Example 8; type: cell-based; details: OVCAR-3, 72 h
Method: as §1, §2

[25] = test system: MCF-7 (breast carcinoma); assay: Cytotoxicity, Example 8; type: cell-based; details: Homo sapiens, MCF7, 72 h
Method: as §1, §2

[26] = test system: HLF-1 (normal human diploid lung); assay: Cytotoxicity, Example 8; type: cell-based; details: HLF1, 72 h
Method: as §1, §2

[27] = test system: H322 (lung carcinoma); assay: Cytotoxicity, Example 8; type: cell-based; details: NCI-H322, 72 h
Method: as §1, §2

[28] = test system: BT-549 (human breast ductal carcinoma); assay: Cytotoxicity, Example 8; type: cell-based; details: BT-549, 72 h
Method: as §1, §2

[29] = test system: CHO (Chinese hamster ovary); assay: Cytotoxicity, Example 8; type: cell-based; details: Cricetulus griseus, 72 h
Method: as §1, §2

[30] = test system: 786-0 (human perirenal cell adenocarci); assay: Cytotoxicity, Example 8; type: cell-based; details: 786-0, 72 h
Method: as §1, §2

[31] = test system: BALB/c 3T3 (normal mouse embryo); assay: Cytotoxicity (sulphorhodamine B), normal cell line, Table 1B; type: cell-based; details: BALB/c3T3, 72 h
[32] = test system: RPMI-7666 (normal human PBLs); assay: as above; type: cell-based; details: 72 h
[33] = test system: CHO (Chinese hamster ovary); assay: as above; type: cell-based; details: Cricetulus griseus, 72 h
[34] = test system: NHDF (normal human skin); assay: as above; type: cell-based; details: 72 h
[35] = test system: MCF-7 (breast carcinoma); assay: Cytotoxicity (sulphorhodamine B), cancer cell line, Table 1B; type: cell-based; details: Homo sapiens, MCF7, 72 h
[36] = test system: tubulin / microtubules; assay: Tubulin polymerization-depolymerization (CaCl2-induced depolymerization of microtubules); type: biochemical; details: 10^-6 M; 1.0 mg/mL tubulin; CaCl2 0.25 mM after 16 minutes; 37° C.; initial, no prior release
Method: Tubulin polymerization to microtubules is promoted by GTP, whereas CaCl2 causes depolymerization of microtubules back to tubulin (FIG. 3A). […] The designed protaxol 5 was tested for its ability to stabilize microtubules formed from tubulin via the action of GTP. […] These findings are in agreement with the previously reported loss of activity resulting from blocking the C-2' hydroxyl group.
Tubulin polynerization-depolymerization experiments with taxol and designed protaxol 5 are illustrated in FIG. 3. CaCl2 -promoted depolymerization of microtubules was suppressed by taxol and protaxol 5 (after taxol release).
These measurements may be conducted at 37° C. following a recently developed procedure described by R. Merlock and W. Wrasidlo (Analytical Biochemistry, 1993). In each case 1.0 mM GTP may be employed to promote initial polymerization of tubulin.
D: Tubulin (1.0 mg/mL) with protaxol 5 (10^-6 M) after release of taxol (as determined by HPLC, essentially quantitative conversion).

[37] = test system: L1210 (mouse leukaemia); assay: Cytotoxicity (sulphorhodamine B), cancer cell line, Table 1B; type: cell-based; details: L1210, 72 h

Compound: CC(=O)O[C@H]1C(=O)[C@@]2(C)[C@H]([C@H](OC(=O)c3ccccc3)[C@]3(O)C[C@H](OC(=O)[C@H](O)[C@@H](NC(=O)c4ccccc4)c4ccccc4)C(C)=C1C3(C)C)[C@]1(OC(C)=O)CO[C@@H]1C[C@@H]2O [Taxol]
- IC50 [1]: < 0.001 µM
- IC50 [2]: < 0.001 µM
- IC50 [3]: 1 µM
- IC50 [4]: 10 µM
- IC50 [5]: 10 µM
- IC50 [6]: 100 µM
- Water solubility [7]: < 0.10 mg/mL
- IC50 [8]: 0.1 µM
- IC50 [9]: < 0.001 µM
- IC50 [10]: < 0.001 µM
- IC50 [11]: < 0.001 µM
- water solubility of taxol [12]: only slightly soluble in water; also recorded: essentially insoluble in water
- IC50 [13]: 0.001 µM
- IC50 [14]: < 0.001 µM
- IC50 [15]: 0.001 µM
- selectivity against cancer cells versus normal cells [16]: rather impressive selectivity
- IC50 [17]: 0.098 µM
- IC50 [18]: 69.1 µM
- IC50 [19]: 208 µM
- IC50 [20]: 60.6 µM
- IC50 [21]: 1110 µM
- IC50 [22]: 100 µM
- IC50 [23]: 0.098 µM
- IC50 [24]: 0.098 µM
- IC50 [25]: 64.4 µM
- IC50 [26]: 63 µM
- IC50 [27]: 122 µM
- IC50 [28]: 44.6 µM
- IC50 [29]: 53.5 µM
- IC50 [30]: 0.184 µM
- IC50 [31]: 1 µM
- IC50 [32]: 100 µM
- IC50 [33]: 100 µM
- IC50 [34]: 1 µM
- IC50 [35]: < 10 µM
- prevention of CaCl2-induced depolymerization of microtubules [36]: stabilizes microtubules against CaCl2-induced depolymerization; also recorded: suppressed; also recorded: did not cause depolymerization
- IC50 [37]: 1 µM
